{"source": "patent US20230181463A1", "about": "“OLEOGEL AND OLEOPASTE COMPOSITIONS AND USES THEREOF” (Massachusetts Institute of Technology, priority 2020, published 2023)", "key": {"[1]": {"assay": "In vitro digestion and drug bioaccessibility of praziquantel-loaded gel", "type": "in vitro ADME", "conditions": "from oleogel", "description": "The digestion of gels were characterized in three simulated conditions—oral, gastric and intestinal phases (fasted state).\nSimulated salivary fluid (SSF) pH 7.0 was prepared in the presence of a-amylase based on a previously described method^24,43 with slight modifications. Briefly, SSF stock solution (1.25x concentrated, 3.5 mL) was placed in a glass vial. The 1.25× SSF stock solution contained the following ingredients: 15.1 mmol/L potassium chloride, 3.7 mmol/L potassium dihydrogen phosphate, 13.6 mmol/L sodium bicarbonate, 0.15 mmol/L magnesium chloride and 0.06 mmol/L ammonium carbonate. To this 0.5 mL of a-amylase solution (0.3 mg/mL in SSF stock solution), 0.025 mL of 0.3M calcium chloride and 0.975 mL of water were added and thoroughly mixed.\nThe SSF was added to 0.5 g praziquantel-loaded gel placed in a pre-heated glass vial at 37° C. containing 5 glass beads to aid in mixing. The vials were placed in an incubator shaker and shaken at 160 rpm and 37° C. One hundred microliters of the sample were withdrawn periodically, centrifuged at 14,000 rpm for 15 min. The supernant was collected and syringe filtered through a 0.22 μm nylon syringe filter (Nalgene Syringe Filters, Thermo Scientific™). Drug concentration in the filtrate was analyzed using HPLC.\nIn vitro digestion in gastric phase was performed in 7.5 mL simulated gastric fluid (SGF) pH 2 (2 g/L sodium chloride, 2.917 g/L concentrated hydrochloric acid) in the presence of pepsin (3.4 g/L). […] Samples (0.2 mL) were withdrawn periodically, centrifuged at 14,000 rpm for 15 min and syringe filtered through 0.22 μm nylon syringe filters (Nalgene Syringe Filters, Thermo Scientific™) prior to drug quantification with HPLC.\nThe fasting state simulated intestinal fluid version 2 (FaSSIF-V2) medium pH 6.5 was prepared based on a previously described method^44 in the presence of pancreatin (8×USP specification). […] Samples were then centrifuged for 15 min at 14,000 rpm at room temperature and drug concentration in the supernatant was measured using HPLC."}, "[2]": {"description": "Solubility of three anti-infectives, azithromycin, praziquantel and lumefantrine, were measured in 108 formulations prepared by mixing various oils and solubilizers (9 oils×11 solubilizers, and 9 oils without solubilizer). Given the focus in rapid clinical translation, the weight fraction of the solubilizer was limited to the maximum level they were used in FDA-approved products.\nApproximately two grams of oil-solubilizer mixtures in a 20 mL glass vial. Drug was added in excess to each formulation and the mixture was stirred overnight at room temperature. One milliliter of the mixture was removed, placed in a microcentrifuge tube, and centrifuged at 6000 rpm for 15 min to remove insoluble drug particles. A fraction of the supernant was removed and drug was extracted using methanol or acetonitrile. Drug concentrations in the extracts were measured using HPLC.\nAn Agilent 1260 Infinity II HPLC system equipped with a quaternary pump, autosampler, thermostat, control module, and diode array detector. Data processing and analysis was performed using OpenLab CDS ChemStation®. Praziquantel chromatographic separations were carried out on an Agilent ZORBAX Eclipse Plus C-18 analytical column (4.6>150 mm) with 5 μm particles, maintained at 40° C. Gradient separation at a flow rate of 1 mL/min was achieved using water and acetonitrile, which corresponds to A and B, respectively. The run time was 5 minutes with a 3-minute post-run and a gradient profile of: 0 min A: 70% and B: 30%, 2.5 min A: 30% and B: 70%. The injection volume was 5 μL. The diode array detector was set using an ultraviolet (UV) detection wavelength of 217 nm with no reference at an acquisition rate of 40 hertz.\nAzithromycin chromatographic separations were carried out on an Agilent 4.6×150 mm ZORBAX Eclipse Plus C-18 analytical column with 5 μm particles, maintained at 40° C. Isocratic separation at a flow rate of 1 mL/min was achieved using 10% 10 mM ammonium phosphate dibasic in water and 90% methanol. The run time was 6 minutes. The injection volume was 10 μL. The diode array detector was set using an ultraviolet (UV) detection wavelength of 210 nm with no reference at an acquisition rate of 5 hertz.\nLumefantrine chromatographic separations were carried out on an Agilent Poroshell 120 PFP column (4.6×100 mm) with 2.7 μm particles, maintained at 40° C. Gradient separation at a flow rate of 1 mL/min was achieved using 0.1% formic acid in water and methanol, which corresponds to A and B, respectively. The run time was 7 minutes with a 3-minute post-run and a gradient profile of: 0 min A: 30% and B: 70%, 3 min A: 5% and B: 95%. The injection volume was 10 μL. The diode array detector was set using an ultraviolet detection wavelength of 303 nm with no reference wavelength at an acquisition rate of 40 hertz."}, "[3]": {"conditions": "cited from earlier work"}, "[4]": {"assay": "Solubility of albendazole in oil and oil-solubilizer formulations", "conditions": "28 formulations"}, "[5]": {"conditions": "Lindenberg et al., 2004; cited from earlier work"}, "[6]": {"assay": "Release of ABZ from non-oil-based formulations in SIF", "type": "in vitro ADME", "description": "To test the effect of nanosizing, the rate of release of ABZ in SIF when ABZ was used unformulated and when formulated in nanoparticles was compared. Additionally, a physical mixture of ABZ, PVA and Tween 20 was prepared to delineate the effects that the excipients had on drug release and the effect of nanosizing.\nFor the release study, 17.5 mg of the nanoparticle formulation, or physical mixture were placed in a 50-ml falcon tube. ABZ powder equivalent to the amount present in the physical mixture and nanoparticle formulation was used for the drug release. SIF was added to each formulation and drug release studies were conducted as described for AZT. Concentration of ABZ in release media was measured using HPLC.\nABZ samples after being prepared with methanol were analysed by Agilent 1260 Infinity I Quaternary LC equipped with a diode array detector (DAD). Isocratic elution of 0.1% formic acid in distilled water and acetonitrile was 55:45 with flow rate of 1 ml/min. Injection volume was 5 μl, and Zobrax Eclipse XDB C18 column (4.6×150 mm) was used at 40° C. The running time was 6 minutes and the retention time of ABZ is 3.4 mins. DAD was employed, and readout was detected at the wavelength of 254 nm, bandwidth of 4.0 nm and 10 Hz data acquisition rate. The method gained good peak shape and symmetry."}, "[7]": {"conditions": "cited from earlier work", "remark": "listed apart in the source"}, "[8]": {"assay": "Stability of drugs in oleogels", "type": "physicochemical", "conditions": "oleogel, 40° C., mean±S.D., n=5", "description": "Finally, the stability of drugs in oleogels was tested (Table 3.3). Oleogels loaded with drugs (Azithromycin, Lumefantrine, or Ivermectin) were placed at different temperatures. At various times, drug was extracted from the oleogel and the concentration was measured using HPLC-UV or LC-MS/MS. Drug stability (last column) is represented as mean±S.D., n=5."}, "[9]": {"assay": "Stability of ivermectin during heating", "type": "physicochemical", "conditions": "peceol, ricebran wax, cottonseed oil", "description": "As manufacturing of the formulation involves heating, the stability of ivermectin during heating was assessed (see FIG. 24)."}, "[10]": {"assay": "Stability of AZT during synthesis of oleogel (heating in cottonseed oil at 90° C.)", "type": "physicochemical", "conditions": "AZT 1 mg/g in cottonseed oil; 0, 5 and 10 mins; one-way ANOVA, α=0.05", "description": "Twenty-five milligrams of AZT were added to cottonseed oil in a glass vial at concentration of 1 mg/g. After 60 minutes of sonication, all drug powder was dissolved. The AZT solution was divided into three parts (8 ml each). One part was maintained at room temperature, while the other two were placed on a hot plate at 90° C. for 5 minutes and 10 minutes. Forty microliters from each vial were pipetted into 1.5-ml microcentrifuge tube containing 1 ml of methanol. AZT was extracted from the oil phase into the methanol phase by shaking on a horizontal shaker overnight. Following overnight extraction, the oil phase was separated from the methanol phase by centrifugation at 14000 RPM for 10 minutes. The methanol phase was diluted before analysis using liquid chromatography-mass spectrometry (LC-MS).\nAZT concentration in methanol extract was analysed by LC-MS on Agilent 1260 Infinity I Quaternary LC equipped with a diode array detector (DAD) and Agilent 6120B Single Quadrupole mass spectrometer hardware and software. Roxithromycin (RXT) was used as an internal standard of AZT analysis. The linear range of AZT detection was 10-5000 ng/ml. […] The flow rate was 0.75 ml/min while chromatograms were recorded at wavelength of 210 nm, bandwidth of 4.0 nm and 5 Hz data acquisition rate. […]"}, "[11]": {"conditions": "model input, Beringer et al., 2005; cited from earlier work"}}, "data": [{"compound": "O=C(C1CCCCC1)N1CC(=O)N2CCc3ccccc3C2C1", "note": "(stereo not drawn) [praziquantel]", "values": [{"measurement": "solubilized fraction of praziquantel in the aqueous intestinal phase", "setting": "[1]; FaSSIF-V2 with pancreatin, t=15 min", "result": 51, "unit": "%"}, {"measurement": "praziquantel in the aqueous phase, maximum of total drug content", "setting": "[1]; simulated gastric digestion (SGF pH 2), within 30 min, plateau to 2 h", "result": 10, "unit": "%"}, {"measurement": "praziquantel detected in the SSF, of total drug content", "setting": "[1]; simulated salivary fluid", "result": "≤ 1", "unit": "%"}, {"measurement": "solubility in sunflower oil higher than in the rest of the oils", "setting": "[2]", "result": "~2", "unit": "fold"}, {"measurement": "solubility of praziquantel in most oils", "setting": "[2]", "result": "5 to 7", "unit": "mg/g"}]}, {"compound": "CCCSc1ccc2nc(NC(=O)OC)[nH]c2c1", "note": "[ABZ, albendazole]", "values": [{"measurement": "reported water solubility of albendazole", "setting": "[3]", "result": 41, "unit": "µg/g"}, {"measurement": "solubility in oil and oil-solubilizer formulations higher than reported water solubility", "setting": "[4]", "result": "~10", "unit": "fold"}, {"measurement": "absorption extent", "setting": "[5]", "result": "< 5", "unit": "%"}, {"measurement": "ABZ released and solubilized, plateau concentration", "setting": "[6]; 90-minute release, not formulated in oil", "result": 0.05, "unit": "µg/mL"}, {"measurement": "drug release (in words)", "setting": "[6]; not formulated in oils, FIGS. 36A-36C", "result": "no drug release measured"}]}, {"compound": "CCCCN(CCCC)CC(O)c1cc(Cl)cc2c1-c1ccc(Cl)cc1/C2=C/c1ccc(Cl)cc1", "note": "(stereo not drawn) [lumefantrine]", "values": [{"measurement": "reported water solubility of lumefantrine", "setting": "[7]; reference 40", "result": "< 2", "unit": "µg/g"}, {"measurement": "average solubility in other Labrafac lipophile formulations lower than with flaxseed oil", "setting": "[2]", "result": "~1.6", "unit": "fold"}, {"measurement": "average solubility of lumefantrine", "setting": "[2]", "result": "16.6 ± 3.8", "unit": "mg/g"}, {"measurement": "solubility in tested formulations higher than reported water solubility", "setting": "[2]", "result": "~10000", "unit": "fold"}, {"measurement": "solubility of lumefantrine", "setting": "[2]", "result": "26.6 ± 1.8", "unit": "mg/g"}, {"measurement": "solubility of lumefantrine in the oils", "setting": "[2]", "result": "> 10", "unit": "mg/g"}]}, {"compound": "ivermectin", "values": [{"measurement": "% drug stable", "setting": "[8]; 28 days, Butylated hydroxyanisole", "result": "98 ± 11", "unit": "%"}, {"measurement": "drug recovered after heating", "setting": "[9]", "result": 100, "unit": "%"}]}, {"compound": "CC[C@H]1OC(=O)[C@H](C)[C@@H](O[C@H]2C[C@@](C)(OC)[C@@H](O)[C@H](C)O2)[C@H](C)[C@@H](O[C@@H]2O[C@H](C)C[C@H](N(C)C)[C@H]2O)[C@](C)(O)C[C@@H](C)CN(C)[C@H](C)[C@@H](O)[C@]1(C)O", "note": "[AZT, azithromycin]", "values": [{"measurement": "AZT concentrations after heating at 90° C.", "setting": "[10]", "result": "no statistical effect of temperature on AZT concentrations"}, {"measurement": "ka (absorption rate constant)", "setting": "[11]", "result": 0.452, "unit": "h⁻¹"}, {"measurement": "% drug stable", "setting": "[8]; 44 days, Propyl gallate", "result": "99 ± 5", "unit": "%"}, {"measurement": "solubility of azithromycin in water", "setting": "[7]; reference 39", "result": "~0.2", "unit": "mg/g"}, {"measurement": "solubility of azithromycin in the oils", "setting": "[2]", "result": "6 to 10", "unit": "mg/g"}, {"measurement": "water solubility lower than certain tested formulations", "setting": "[2]", "result": "~100", "unit": "fold"}]}]}
